US20240317708A1, “INHIBITORS OF TRANSGLUTAMINASES” (ZEDIRA GMBH, priority 2021, published 2024)

Legend:
[1] = target: T1, recombinant human transglutaminase 2 (Homo sapiens, UniProt P21980); assay: Transglutaminase assay (dansylcadaverine incorporation into dimethylcasein, DCC-assay); type: biochemical; settings: recombinant human TG2 10 nM, dansylcadaverine/dimethylcasein, 37° C.
T1 construct: purchased Zedira T022
T1 sequence (P21980 1-687): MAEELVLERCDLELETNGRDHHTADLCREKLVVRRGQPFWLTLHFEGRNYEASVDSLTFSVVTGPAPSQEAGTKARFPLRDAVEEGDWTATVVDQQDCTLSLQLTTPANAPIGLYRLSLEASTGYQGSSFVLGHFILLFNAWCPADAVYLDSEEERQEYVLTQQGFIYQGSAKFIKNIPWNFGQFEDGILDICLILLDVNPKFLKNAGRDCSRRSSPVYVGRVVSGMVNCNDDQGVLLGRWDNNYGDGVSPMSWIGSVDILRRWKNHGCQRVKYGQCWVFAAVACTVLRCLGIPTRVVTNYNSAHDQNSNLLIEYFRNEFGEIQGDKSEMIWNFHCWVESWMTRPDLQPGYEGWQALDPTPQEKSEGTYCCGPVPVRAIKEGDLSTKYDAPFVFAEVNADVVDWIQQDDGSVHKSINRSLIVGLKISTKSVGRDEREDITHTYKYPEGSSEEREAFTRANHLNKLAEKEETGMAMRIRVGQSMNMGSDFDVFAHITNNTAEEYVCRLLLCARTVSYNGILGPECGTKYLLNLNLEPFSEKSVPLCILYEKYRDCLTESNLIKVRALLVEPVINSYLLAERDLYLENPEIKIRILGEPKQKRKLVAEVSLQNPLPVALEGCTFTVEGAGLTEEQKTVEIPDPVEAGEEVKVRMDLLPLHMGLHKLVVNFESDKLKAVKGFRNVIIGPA
Method in brief: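 IC50 derived from fluorescence slope between 20 and 30 min (λex 330 nm, λem 500 nm, 37 °C), expressed relative to a 2% DMSO control. Reaction: 10 nM recombinant human TG2, 4 μM dimethylcasein, 16.7 μM dansylcadaverine, 10 mM CaCl2 and glutathione, pH 8.0.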

[2] = Log D shake flask method (octanol / PBS pH 7.4, HPLC); type: physicochemical; settings: octanol/phosphate-buffered saline (PBS); octanol / PBS pH 7.4, shake flask
Description: In order to classify the inventive compounds according to their lipophilicity, Log D values (distribution coefficient) were determined by means of the well-established shake flask method, measuring the partition of a compound between an octanol and phosphate-buffered saline (PBS, pH 7.4) by HPLC.

[3] = Caco-2 permeability assay (CacoReady kit); type: in vitro ADME; settings: human
Method in brief: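 Papp values come from Caco-2 barrier studies intended to predict oral bioavailability; the manufacturer's procedure for the ready-made kit was followed.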

Row | SMILES | IC50 [1] | logD [2] | Papp [3]
1 | COC(=O)/C=C/CC[C@H](NC(=O)c1nc(C2(C)CC2)no1)C(=O)Nc1cccn(CC(=O)NC2C3CC4CC2CC(C(N)=O)(C4)C3)c1=O (stereo partly drawn) [III-167, (S,E)-methyl 7-(1-(2-(4-aminoadamantane-1-carboxamide)-2-oxoethyl)-2-oxo-1,2-dihydropyridin-3-ylamino)-6-(3-(1-methylcyclopropyl)-1,2,4-oxadiazole-5-carboxamido)-7-oxohept-2-enoate] | 250 to 1500 nM | < 1 | < 1 ×10⁻⁶ cm/s
2 | C=CCNC(=O)/C=C/CC[C@H](NC(=O)c1ccc2cnccc2n1)C(=O)Nc1cccn(CC(=O)NC23CC(C2)C3)c1=O [III-150, (S,E)-N1-allyl-N7-(1-(2-(bicyclo[1.1.1]pentan-1-ylamino)-2-oxoethyl)-2-oxo-1,2-dihydropyridin-3-yl)-6-(1,6-naphthyridine-2-carboxamido)hept-2-enediamide] | 25 to 250 nM | < 1 | < 1 ×10⁻⁶ cm/s
3 | COC(=O)/C=C/CC[C@H](NC(=O)c1oc2ccccc2c1C)C(=O)Nc1cccn(CC(=O)NC23CC4CC(CC(Cl)(C4)C2)C3)c1=O [III-52, (S,E)-methyl 7-(1-(2-(3-chloroadamantan-1-amino)-2-oxoethyl)-2-oxo-1,2-dihydropyridin-3-ylamino)-6-(3-methylbenzofuran-2-carboxamido)-7-oxohept-2-enoate] | < 25 nM | 3 to 5 | 1 to 10 ×10⁻⁶ cm/s
4 | COC(=O)/C=C/CC[C@H](NC(=O)c1oc2ccccc2c1C)C(=O)Nc1cccn(CC(=O)N[C@H]2C[C@H]3C[C@@H]([C@@H]2C)C3(C)C)c1=O [III-70, (S,E)-methyl 6-(3-methylbenzofuran-2-carboxamido)-7-oxo-7-(2-oxo-1-(2-oxo-2-((1S,2S,3S,5R)-2,6,6-trimethylbicyclo[3.1.1]heptan-3-ylamino)ethyl)-1,2-dihydropyridin-3-ylamino)hept-2-enoate] | < 25 nM | 3 to 5 | 1 to 10 ×10⁻⁶ cm/s
5 | Cc1oc(Br)cc1C(=O)N[C@@H](CC/C=C/C(=O)Nc1ccccc1)C(=O)Nc1cccn(CC(=O)NC23CC(C2)C3)c1=O [III-152, (S,E)-N7-(1-(2-(bicyclo[1.1.1]pentan-1-ylamino)-2-oxoethyl)-2-oxo-1,2-dihydropyridin-3-yl)-6-(5-bromo-2-methylfuran-3-carboxamido)-N1-phenylhept-2-enediamide] | 25 to 250 nM | 1 to 3 | 1 to 10 ×10⁻⁶ cm/s
6 | COC(=O)/C=C/CC[C@H](NC(=O)c1cc2ccc(N(C)C)cc2o1)C(=O)Nc1cccn(CC(=O)NC23CC(C2)C3)c1=O [III-161, (S,E)-methyl 7-(1-(2-(bicyclo[1.1.1]pentan-1-ylamino)-2-oxoethyl)-2-oxo-1,2-dihydropyridin-3-ylamino)-6-(6-(dimethylamino)benzofuran-2-carboxamido)-7-oxohept-2-enoate] | 250 to 1500 nM | 1 to 3 | < 1 ×10⁻⁶ cm/s
7 | COC(=O)/C=C/CC[C@H](NC(=O)c1cncn1C)C(=O)Nc1cccn(CC(=O)N[C@@H]2C[C@@H]3CC[C@H]2C3)c1=O [III-58, (S,E)-methyl 7-(1-(2-((1S,2R,4R)-bicyclo[2.2.1]heptan-2-ylamino)-2-oxoethyl)-2-oxo-1,2-dihydropyridin-3-ylamino)-6-(1-methyl-1H-imidazole-5-carboxamido)-7-oxohept-2-enoate] | < 25 nM | 1 to 3 | < 1 ×10⁻⁶ cm/s
8 | COC(=O)/C=C/CC[C@H](NC(=O)c1cnc(NC(C)=O)s1)C(=O)Nc1cccn(CC(=O)NC23CC(C2)C3)c1=O [III-162, (S,E)-methyl 6-(2-acetamidothiazole-5-carboxamido)-7-(1-(2-(bicyclo[1.1.1]pentan-1-ylamino)-2-oxoethyl)-2-oxo-1,2-dihydropyridin-3-ylamino)-7-oxohept-2-enoate] | 250 to 1500 nM | < 1 | < 1 ×10⁻⁶ cm/s
9 | COC(=O)/C=C/CC[C@H](NC(=O)C1Cc2ccccc2C1)C(=O)Nc1cccn(CC(=O)NC2C3CC4CC(C3)CC2C4)c1=O (stereo partly drawn) [III-12, (S,E)-methyl 6-(2,3-dihydro-1H-indene-2-carboxamido)-7-(1-(2-(2-adamantylamino)-2-oxoethyl)-2-oxo-1,2-dihydropyridin-3-ylamino)-7-oxohept-2-enoate] | < 25 nM | 3 to 5 | 1 to 10 ×10⁻⁶ cm/s
10 | COC(=O)/C=C/CC[C@H](NC(=O)[C@@H]1C[C@H](Br)CN1)C(=O)Nc1cccn(CC(=O)NC2C3CC4CC(C3)CC2C4)c1=O (stereo partly drawn) [III-27, (S,E)-methyl 6-((2S,4S)-4-bromopyrrolidine-2-carboxamido)-7-(1-(2-(2-adamantylamino)-2-oxoethyl)-2-oxo-1,2-dihydropyridin-3-ylamino)-7-oxohept-2-enoate] | 25 to 250 nM | 3 to 5 | < 1 ×10⁻⁶ cm/s
11 | COC(=O)/C=C/CC[C@H](NC(=O)c1oc2ccccc2c1C)C(=O)Nc1cccn(CC2C3CC4CC(C3)CC2C4)c1=O (stereo partly drawn) [III-82, (S,E)-methyl 7-(1-(2-adamantylmethyl)-2-oxo-1,2-dihydropyridin-3-ylamino)-6-(3-methylbenzofuran-2-carboxamido)-7-oxohept-2-enoate] | 250 to 1500 nM | 3 to 5 | 1 to 10 ×10⁻⁶ cm/s
12 | COC(=O)/C=C/CC[C@H](NC(=O)c1coc(S(N)(=O)=O)c1)C(=O)Nc1cccn(CC(=O)NC2C3CC4CC2CC(NC(C)=O)(C4)C3)c1=O (stereo partly drawn) [III-164, (S,E)-methyl 7-(1-(2-(1-acetylamino-4-aminoadamantane)-2-oxoethyl)-2-oxo-1,2-dihydropyridin-3-ylamino)-7-oxo-6-(5-sulfamoylfuran-3-carboxamido)hept-2-enoate] | 250 to 1500 nM | < 1 | < 1 ×10⁻⁶ cm/s

The remaining lines, values ahead:

Row | IC50 [1] | logD [2] | Papp [3] | SMILES
13 | 25 to 250 nM | 3 to 5 | 1 to 10 ×10⁻⁶ cm/s | CCC12CC3CC(C1)CC(NC(=O)Cn1cccc(NC(=O)[C@H](CC/C=C/C(=O)OC)NC(=O)c4oc5ccccc5c4C)c1=O)(C3)C2 [III-48, (S,E)-methyl 7-(1-(2-(3-ethyladamantan-1-amino)-2-oxoethyl)-2-oxo-1,2-dihydropyridin-3-ylamino)-6-(3-methylbenzofuran-2-carboxamido)-7-oxohept-2-enoate]
14 | 25 to 250 nM | 1 to 3 | 1 to 10 ×10⁻⁶ cm/s | CCc1c(C(=O)N[C@@H](CC/C=C/C(=O)NC2CCCC2)C(=O)Nc2cccn(CC(=O)NC34CC(C3)C4)c2=O)oc2ccccc12 [III-147, (S,E)-N7-(1-(2-(bicyclo[1.1.1]pentan-1-ylamino)-2-oxoethyl)-2-oxo-1,2-dihydropyridin-3-yl)-N1-cyclopentyl-6-(3-ethylbenzofuran-2-carboxamido)hept-2-enediamide]
15 | < 25 nM | 1 to 3 | < 1 ×10⁻⁶ cm/s | COC(=O)/C=C/CC[C@H](NC(=O)c1ccnnc1)C(=O)Nc1cccn(CC(=O)NC2C3CC4CC(C3)CC2C4)c1=O (stereo partly drawn) [III-85, (S,E)-methyl 7-(1-(2-(2-adamantylamino)-2-oxoethyl)-2-oxo-1,2-dihydropyridin-3-ylamino)-7-oxo-6-(pyridazine-4-carboxamido)hept-2-enoate]
16 | 250 to 1500 nM | 1 to 3 | 1 to 10 ×10⁻⁶ cm/s | O=C(/C=C/CC[C@H](NC(=O)c1nc(Cl)sc1Cl)C(=O)Nc1cccn(CC(=O)NC23CC(C2)C3)c1=O)NCc1ccccc1 [III-154, (S,E)-N1-benzyl-N7-(1-(2-(bicyclo[1.1.1]pentan-1-ylamino)-2-oxoethyl)-2-oxo-1,2-dihydropyridin-3-yl)-6-(2,5-dichlorothiazole-4-carboxamido)hept-2-enediamide]
17 | 25 to 250 nM | 1 to 3 | < 1 ×10⁻⁶ cm/s | COC(=O)/C=C/CC[C@H](NC(=O)[C@H]1COCCN1)C(=O)Nc1cccn(CC(=O)NC2C3CC4CC(C3)CC2C4)c1=O (stereo partly drawn) [III-31, (S,E)-methyl 7-(1-(2-(2-adamantylamino)-2-oxoethyl)-2-oxo-1,2-dihydropyridin-3-ylamino)-6-((R)-morpholine-3-carboxamido)-7-oxohept-2-enoate]
18 | 25 to 250 nM | 1 to 3 | < 1 ×10⁻⁶ cm/s | Cn1cncc1C(=O)N[C@@H](CC/C=C/S(C)(=O)=O)C(=O)Nc1cccn(CC(=O)NC2C3CC4CC(C3)CC2C4)c1=O (stereo partly drawn) [III-100, (S,E)-N-(1-(1-(2-(2-adamantylamino)-2-oxoethyl)-2-oxo-1,2-dihydropyridin-3-ylamino)-6-(methylsulfonyl)-1-oxohex-5-en-2-yl)-1-methyl-1H-imidazole-5-carboxamide]
